Measured values as given in patent US10011598B2, “Small molecules targeting repeat r(CGG) sequences” (THE SCRIPPS RESEARCH INSTITUTE, priority 2012, dated 2018).
Entries after “also recorded” stand apart in the source; their conditions may differ. Where two headings read alike, the source gives them in different places.

Tests used:
[1] = test system: r(CGG)12-DGCR8Δ complex; assay: TR-FRET protein displacement assay; format: biochemical; settings: for Percentage displacement at 25 μM: 25 μM compound, DGCR8Δ displaced from r(CGG)12; for inhibition of the r(CGG)12-DGCR8Δ interaction, in words: comparison within the tested compounds
[2] = test system: PLEKHH2 alternative splicing; assay: PLEKHH2 mini-gene control splicing in COS7 cells; format: cell-based; settings: for effect on PLEKHH2 splicing: no concentration stated, not regulated by Sam68
Source text: (§1) Control experiments were also completed to determine the specificity of 1a; that is if it affects the splicing of RNAs not controlled by Sam68. In these experiments, a PLEKHH2 (15) or cardiac troponin T (cTNT) (32) mini-gene was used, as their alternative splicing is not regulated by Sam68. […] Thus, the effect of 1a on pre-mRNA splicing appears to be specific to the splicing of pre-mRNAs regulated by Sam68.

[3] = test system: cTNT alternative splicing; assay: cTNT mini-gene control splicing in COS7 cells; format: cell-based; settings: for effect on cTNT splicing: no concentration stated, not regulated by Sam68
Source text: as §1

[4] = test system: SMN2 exon 7 alternative splicing; assay: SMN2 mini-gene splicing in COS7 cells (FXTAS model), RT-PCR; format: cell-based; settings: for SMN2 pre-mRNA splicing defects, in words: figure legends
Source text: Encouraged by our TR-FRET assay results, we tested the bioactivity of the optimal dimeric small molecule, 2E-5NMe, by using a FXTAS cellular model. In the FXTAS cell model, r(CGG)^exp binds and sequesters Sam68, a pre-mRNA splicing regulator. Sequestration of Sam68 causes its inactivation and dysregulation of alternative pre-mRNA splicing. In particular, the alternative splicing of exon 7 of the survival motor neuron-2 pre-mRNA (SMN2; involved in maintenance of motor neurons and mRNA processing) is dysregulated. Exon 7 is included too frequently when r(CGG)^exp is expressed, ˜70% of time as compared to normal cells in which exon 7 has an inclusion rate of only ˜40% (FIG. 14). Experiments were completed as previously described. Briefly. COS7 cells were co-transfected with plasmids expressing an SMN2 alternative splicing reporter and r(CGG)60. The transfection cocktail was removed, and the cells were incubated with fresh medium containing serially diluted concentrations of compound for 24 h. Total RNA was harvested, and splicing patterns were analyzed via RT-PCR. Remarkably, at […] concentration, 2E-5NMe restores alternative pre-mRNA splicing patterns back to the wild type. The monomer 1a required 10 times higher concentration for the same effect.
(§2) In order to determine if a improves FXTAS-associated splicing defects in vivo, a cell culture model system was used. Briefly. COS7 cells were grown as monolayers in 24- or 96-well plates in growth medium (1×DMEM, 10% FBS, and 1× GlutaMax (Invitrogen)). After the cells reached 90-95% confluency, they were transfected using Lipofectamine 2000 reagent (Invitrogen) or PugenHD (Roche) per the manufacturer's standard protocol. Equal amounts of a plasmid expressing a 60 CGG repeats and a mini-gene of interest (SMN2 or Bcl-x) were used. Approximately 5 h post-transfection, the transfection cocktail was removed and replaced with growth medium containing 1a. After 16-24 h, the cells were lysed in the plate, and total RNA was harvested with a Qiagen RNAEasy kit or a GenElute kit (Sigma). An on-column DNA digestion was completed per the manufacturer's recommended protocol.
(§3) A sample of RNA was subjected to reverse transcription-polymerase chain reaction (RT-PCR) using 5 units of AMV Reverse Transcriptase from Life Sciences or Superscript II (Invitrogen). Approximately 300 ng were reverse transcribed, and 150 ng were subjected to PCR. RT-PCR products were observed after 25-30 cycles of: 95° C. for 1 min: 55° C. for 1 min; 72° C. for 2 min and a final extension at 72° C. for 10 min. The products were separated by polyacrylamide or agarose gel electrophoresis, stained, and imaged using a Typhoon phosphorimager. The splicing isoforms were quantified using QuantityOne software (BioRad). Table S-2 lists the RT-PCR primers used for each mini-gene construct.

[5] = target: RNA containing one 5′CGG/3′GGC motif; assay: RNA-binding assay via Hoechst 33258 dye displacement; settings: RNA with one 5′CGG/3′GGC motif; Table 1
Method: Dissociation constants were determined using an in-solution, fluorescence-based assay (37-45). RNA was annealed in DNA buffer (8 mM Na2HPO4, pH7.0, 185 mM NaCl, 0.1 mM EDTA, 40 μg/mL BSA) at 60° C. for 5 min and allowed to slowly cool to room temperature. The annealed RNA was then titrated into DNA buffer containing 1000 nM Hoechst 33258. Fluorescence signal was recorded using a Bio-Tek FLX-800 plate reader, which was equipped with excitation filter at 360/40 nm and emission filter at 460/40 nm. The change in fluorescence intensity as a function of RNA concentration was fit to the following equation (eq. 3): (37, 46) I=I0+0.5Δϵ{([Ht0]+[RNA]0+Kt)−(([Ht]0+[RNA]0+Kt)^2−4[Ht]0[RNA]0)^0.5} (eq. 3) where I is the observed fluorescence intensity, I0 is the fluorescence intensity in the absence of RNA, Δϵ is the difference between the fluorescence intensity in the absence of RNA and in the presence of infinite RNA concentration and is in units of M^−1. […]
Ligands 1a-1d were then added to compete for binding to the RNA (1 μM) in presence of Hoechst 33258 (1 μM). Reduction in fluorescence of Hoechst 33258 was measured using a Bio-Tek FLX-800 plate reader as a function of ligand concentration (1a-1d) and was fit to the following equation (eq. 4): (41) […]

[6] = test system: Bcl-x exon 2 alternative splicing; assay: Bcl-x mini-gene splicing in COS7 cells (FXTAS model), RT-PCR; format: cell-based; settings: for Bcl-x splicing: COS7 cells expressing r(CGG)60
Method: as §2, §3

[7] = test system: DGCR8Δ; assay: Competition dialysis; format: binding; settings: 0.7 μM ligand, 2 μM protein
Method: (§4) Competition dialysis was completed as previously described (31). Briefly, 2 μM RNA or protein was transferred into Slide-a-Lyzer MINI dialysis units with a molecular weight cut-off of 2,000 (Thermo Scientific), and the units were placed into a solution of 0.7 μM ligand. Two blank units containing only buffer were used to monitor equilibration by checking the absorbance at the peak wavelength. After the blank units reached equilibrium, sodium dodecyl sulfate (SDS) was added to a final concentration of 1%, and the absorbance was measured. This absorbance was used to determine total ligand concentration (Ct). The concentration of the dialysate (free ligand concentration. Cf) was determined analogously. The bound ligand concentration (Cb) was then determined using equation 2: Cb=Ct−Cf (eq. 2) where Cb, Ct, and Cf are concentrations of bound, total, and free ligand, respectively. RNA-Binding Assays Via Dye Displacement.

[8] = test system: fully paired RNAs; assay: Competition dialysis; format: binding; settings: 0.7 μM ligand, 2 μM RNA
Method: as §4

[9] = test system: r(CGG)12; assay: Competition dialysis; format: binding; settings: 0.7 μM ligand, 2 μM RNA
Method: as §4

[10] = test system: r(CGG)^exp nuclear foci; assay: Nuclear foci by fluorescence in situ hybridization (FISH) in COS7 cells; format: cell-based; settings: COS7 cells transfected with r(CGG)60 and GFP
Method: FISH experiments were completed as previously described. (8) Briefly, COS7 cells were plated onto glass coverslips and co-transfected with plasmids encoding for r(CGG)60 and GFP. The cells were fixed in 4% paraformaldehyde in PBS (pH 7.4) for 15 min and washed three times with PBS. Then, they were permeabilized with 0.5% Triton X-100 in PBS. Prior to addition of the FISH probe, the cells were pre-hybridized in a 2×SSC buffer containing 40% formamide and 10 mg/mL BSA for 30 min. The coverslips were hybridized for 2 h in 2×SSC buffer supplemented with 40% formamide, 2 mM vanadyl ribonucleoside, 60 μg/mL tRNA, 30 μg/mL BSA, and 0.75 μg (CCG)8-Cy3 DNA oligonucleotide probe. The cells were washed twice in 2×SSC containing 50% formamide and then twice in 2×SSC. Following FISH the coverslips were incubated for 10 min in 2×SSC containing 1 μg/mL DAPI and rinsed twice in 2×SSC. The coverslips were then mounted in Pro-Long media and examined using either a simple fluorescence microscope (Leica) or a Leica DM4000 B confocal microscope.

[11] = disruption of r(CGG)12-DGCR8Δ complex, Table 1, read-out: IC50
[12] = read-out: IC50 for disruption of r(CGG)12-DGCR8Δ complex / inhibition of protein binding
[13] = 62 times of competitor tRNA, Table 2, read-out: IC50 at the presence of 62 times of competitor, tRNA
[14] = inhibition of r(CGG)12-DGCR8Δ complex, Table 2, read-out: IC50
[15] = 500 μM, splicing not regulated by Sam68
[16] = cells that do not express r(CGG)60

SMILES	Percentage displacement at 25 μM ([1]; Table 1) [%]	inhibition of the r(CGG)12-DGCR8Δ interaction, in words [1]	IC50 [1, 11] [µM]	IC50 [1, 12] [µM]	r(CGG)12-DGCR8Δ complex formation, % ([1]; 1 μM compound, Table 2) [%]	r(CGG)12-DGCR8Δ complex formation, % ([1]; 10 μM compound, Table 2) [%]	IC50 [1, 13] [µM]	IC50 [1, 14] [µM]	effect on PLEKHH2 splicing [2]	effect on cTNT splicing [3]	SMN2 pre-mRNA splicing defects, in words ([4]; COS7 cells expressing r(CGG)60)	Kd [5] [µM]	further results
Cc1c2ccncc2c(C)c2c1[nH]c1ccc(O)cc12 [1e, 9-hydroxyellipticine]	46 ± 5	markedly decreased	~25	~25	–	–	–	–	–	–	–	–	–
Cc1c2cc[n+](Cc3cn(CCCNCC(=O)N(C)C(C)C(=O)N(C)C(C)C(=O)N(C)C(C)C(=O)N(C)C(C)C(=O)N(C)C(C)C(=O)N(CCCn4cc(C[n+]5ccc6c(C)c7[nH]c8ccc(O)cc8c7c(C)c6c5)nn4)CC(N)=O)nn3)cc2c(C)c2c1[nH]c1ccc(O)cc12 (stereo not shown) [2E-5NMe]	–	the most potent compound	–	–	39.6 ± 0.6	5.0 ± 2.6	3.52	0.47 ± 0.08	does not affect	does not affect	reduction of pro-mRNA splicing defects	–	potency relative to the monomer 1a ([1]; IC50 ratio): ~8 fold; r(CGG)12-DGCR8D complex inhibited ([1]; at 1 mM (so in the source)): 60%; r(CGG)12-DGCR8D complex inhibited ([1]; at 10 mM (so in the source)): 95%; concentration that restores alternative pre-mRNA splicing patterns back to the wild type ([4]; SMN2, COS7 cells with r(CGG)60, 24 h): 50 mM; effect on alternative splicing in healthy cells ([4]; cells without r(CGG)60): does not affect
Cc1c2cc[n+](C)cc2c(C)c2c1[nH]c1ccc(O)cc12 [1d, elliptinium]	87 ± 5	–	7 ± 0.2	–	–	–	–	–	–	–	–	0.05 ± 0.018	–
Cc1c2cc[n+](CCN3CCCCC3)cc2c(C)c2c1[nH]c1ccc(O)cc12 [1a, 9-hydroxy-5,11-dimethyl-2-(2-(piperidin-1-yl)ethyl)-6H-pyrido[4,3-b]carbazol-2-ium]	85 ± 1	–	13 ± 0.4	12	66.9 ± 0.7	20.4 ± 0.8	20.1	3.84 ± 0.3	not to effect splicing; also recorded: non-effect	not to effect splicing; also recorded: non-effect	improves SMN2 pre-mRNA splicing defects	0.076 ± 0.004	effect on PLEKHH2 alternative splicing [2, 15]: did not affect; Bcl-x splicing ([6]; 100 μM): Statistically significant improvement; Bcl-x splicing ([6]; 500 μM): restoration of wild type splicing patterns; Bcl-x pre-mRNA splicing defects, in words ([6]; COS7 cells expressing 60 r(CGG) repeats): improves Bcl-x pre-mRNA splicing defects; effect on Bcl-x splicing [6, 16]: No statistically significant effect; effect on cTNT alternative splicing [3, 15]: did not affect; binding to DGCR8Δ [7]: very little binding; amount of ligand partitioned into fully paired RNAs relative to r(CGG)12 [8]: less than half; binding to r(CGG)12 [9]: binds tightly; SMN2 pre-mRNA splicing level ([4]; 100 μM, COS7 cells expressing r(CGG)60): approximately 70 % of wild type; SMN2 pre-mRNA splicing ([4]; 500 μM, COS7 cells expressing r(CGG)60): restores pre-mRNA splicing to levels wild type; concentration at which improvement of SMN2 splicing defects can be observed ([4]; COS7 cells expressing r(CGG)60): 20 µM; concentration required for the same effect relative to 2E-5NMe ([4]; SMN2 splicing restored to wild type): 10 times; effect on SMN2 splicing [4, 16]: No statistically significant effect; size and number of r(CGG)^exp nuclear foci / aggregates [10]: reduces the size and the number of foci; also recorded: reduced formation of r(CGG)^exp aggregation; also recorded: decreases r(CGG)^exp-protein aggregates
